Consider 16 compounds from article PMC5500575, “Identification of Histamine H3 Receptor Ligands Using a New Crystal Structure Fragment-based Method” (Scientific Reports, 2017).

In test [1] the target is H3 receptor. Also noted: method as in ChEMBL [64]. Conditions: known H3 ligand; ref ChEMBL [64]; cited from earlier work.
The target of test [2] is T1, human histamine H3 receptor (Homo sapiens, UniProt Q9Y5N1).
T1 construct: expressed in transfected cells; host or cells: tsA201 cells (transformed HEK-293), transient transfection
Kind of test: IP-One (HTRF IP1 accumulation) assay, H3 receptor co-expressed with chimeric Gqi5 in tsA201 cells. The class given is cell-based. The following applies: antagonist mode; for Result of first pharmacological assaying (pharmacophore screening hits): 20 µM compound, EC80 histamine; for IC50 / pIC50 ± SEM: in the presence of EC80 of histamine. How it is done: Human tsA201 cells, a transformed HEK-293 cell line[70], were cultivated in Dulbecco’s Modified Eagle’s Medium (DMEM) with GlutaMAX, supplemented with 10% foetal bovine serum, penicillin 100 U/ml and streptomycin 100 µg/ml. Subconfluent cells grown in a 100 mm dish were transfected with 5 μg DNA using the Polyfect transfection reagent using the protocol of the manufacturer (Qiagen, West Sussex, UK), however with half of the recommended PolyFect volumes. Co-transfections (ratio 4:1) were performed with either constructs expressing the human histamine H3 receptor together with an empty vector and chimeric G protein Gqi5, respectively.
We applied the highly sensitive high-throughput homogeneous time-resolved fluorescence (HTRF) technology[71] for detection of IP-One generation using the Cisbio IP-One Tb assay kit, exactly as previously described. In brief, on the day of assay, ligand solutions were prepared in ligand buffer (Hank’s Balanced Salt Solution (HBSS) containing 20 mM HEPES pH 7.4, 1 mM CaCl2, 1 mM MgCl2, 40 mM LiCl)) and added to the wells of a 384-well OptiPlate (PerkinElmer, Waltham, USA) in triplicates. When testing for antagonist activity the ligand buffer was supplemented with an EC80 concentration of histamine, and we used a final compound concentration of 20 µM and 2 µM for the first (virtual hits) and second (analogues) screening, respectively. Cell suspensions were added and incubated with ligands for 1 hour, followed by the addition of detection solution (IP-One Tb conjugate & Lysis Buffer +2.5% anti-IP1 cryptate Tb conjugate +2.5% IP1-d2 conjugate. 38:1:1) and incubation in the dark for one hour at room temperature. The plate was read on an EnVision 2104 Multilabel Reader (PerkinElmer) by exciting the wells with light of 340 nm and measuring the emission at 615 nm and 665 nm. The fluorescence resonance energy transfer ratios (665 nm/615 nm) were converted to IP1 concentrations by interpolating values from an IP1 standard curve generated from an IP1 calibration stock, provided by the manufacturer (Cisbio).
Data were analysed using GraphPad Prism 6 (GraphPad Software, San Diego, CA, USA). Concentration-response curves were fitted by nonlinear regression to equation (1):1 R=Rmax+Rmax−Rmin/1+10^(logIC50−X)∗nH where X is the logarithm of the concentration, R is the response, R max is the maximal response, R min is the minimal response, IC50 is the concentration giving half-maximum reduction of the response, and nH is the Hill coefficient, which describes the steepness of the curve. IP-One assay results are reported either as raw FRET in arbitrary units, as IP1 concentration (nM) or as fold over basal (normalized to the basal level of IP1 in ligand buffer [IP1]/[IP1]basal). The Z′-factors were calculated using equation (2):2 Z′=1−3σc++3σc−/|µc+−µc−|
In general terms: TR-FRET usually uses a lanthanide donor and a delayed reading to cut background.

Test [3] deals with T2, human H3 receptor (Homo sapiens, UniProt Q9Y5N1).
T2 construct: expressed in transfected cells; host or cells: HEK-293T cells, membranes
Kind of test: [3H]N-α-methylhistamine radioligand competition binding assay. The following applies: for Ki / Affinity (pKi): 0.3 nM [3H]N-α-methylhistamine; for Ki: Cheng-Prusoff with Kd 0.15 nM; for Affinity (pKi): ± SEM; for Change of potency upon repeated experimentation: possibly due to compound breakdown; for Competition with [3H]N-α-methylhistamine binding (in words): 0.3 nM radioligand, NSB defined with 10 µM histamine. How it is done: HEK-239T cells were grown to 70% confluency in 150 mm cell culture dishes and transfected with 8 µg human H3 receptor using the Polyfect transfection reagent as previously described. After 48 hours, cells were washed from each cell culture dish with Dulbecco’s phosphate buffered saline and harvested using a cell scraper. The resulting cell suspension was then centrifuged and resuspended in 500 µL lysis buffer (50 mM Tris-HCl, pH 7.4). The cell lysate was centrifuged at 16,000 g for 20 minutes at 4 °C. The resultant membrane pellets were stored at −80 °C until use. Each pellet was resuspended in 500 µL binding buffer (50 mM Tris-HCl, 0.5 mM EDTA, pH 7.4), homogenized and centrifuged at 16,000 g for 15 minutes at 4 °C, and subsequently resuspended in 15 mL of binding buffer to a desired protein concentration of approximately 0.2 mg/mL as determined by the method of Bradford[73]. The membrane solution (30 µg protein per well) was incubated for 90 minutes in 250 µL of binding buffer, with or without compound, together with 0.3 nM [^3H]N-α-methylhistamine at room temperature. Non-specific binding was defined as the radioligand bound to membrane solution incubated with 10 µM histamine. The binding reaction was terminated by rapid filtration through Whatman GF/C unifilters (PerkinElmer), and washed four times with ice-cold wash buffer (50 mM Tris-HCl, 10 mM MgCl2, 0.1 mM EDTA, pH 7.4) using a 96-well Packard FilterMate cell harvester (PerkinElmer). Finally, Microscint 0 scintillation liquid (PerkinElmer) was added to the dried filters, and the radioactivity quantified in a Packard TopCount NXT microplate Scintillation Counter (PerkinElmer).
The binding data was fitted by nonlinear regression to equation (3):3 Y=Ymax+Ymax−Ymin/1+10^X−logIC50 where X is the logarithm of the concentration, Y is the specific binding, Y max is the maximal specific binding, Y min is the minimal specific binding, and IC50 is the concentration giving half-maximum reduction in specific binding.
In general terms: Loss of bound radioactivity is the signal in a displacement assay; it reports binding, not function.

The target in test [4] is mouse H3 receptor. Conditions: Gqi5, Ca2+ release; cited from earlier work.

Entries after “also recorded” stand apart in the source; their conditions may differ.

T1 sequence (Q9Y5N1 whole entry): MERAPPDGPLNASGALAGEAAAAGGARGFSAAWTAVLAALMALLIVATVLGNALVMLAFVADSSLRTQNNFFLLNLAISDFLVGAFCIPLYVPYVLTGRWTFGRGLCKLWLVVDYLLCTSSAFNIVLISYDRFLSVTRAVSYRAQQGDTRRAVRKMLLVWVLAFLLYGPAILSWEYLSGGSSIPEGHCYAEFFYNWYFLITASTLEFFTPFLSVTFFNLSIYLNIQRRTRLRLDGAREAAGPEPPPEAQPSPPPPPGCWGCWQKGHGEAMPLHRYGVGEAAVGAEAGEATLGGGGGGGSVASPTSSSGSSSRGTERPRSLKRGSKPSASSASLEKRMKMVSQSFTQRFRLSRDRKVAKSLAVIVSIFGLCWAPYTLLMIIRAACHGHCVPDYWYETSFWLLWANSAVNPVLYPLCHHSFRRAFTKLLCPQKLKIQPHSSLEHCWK
T2 sequence (Q9Y5N1 whole entry): as above

Consider `CN(C)CCCNc1c2c(nc3ccccc13)CCCCC2` [ChEMBL 65849], for which the “Affinity (pKi) of most similar ChEMBL ligand” value in test [1] was 8.0.

In general, Ki refers to the equilibrium dissociation constant of an inhibitor or competing ligand from its target. As to `Cc1nccn1-c1ccc(CNCc2cccc(C#N)c2)cc1F` [Compound 20], the “Result of first pharmacological assaying (pharmacophore screening hits)” value (from here on “Result of first pharmacological assaying”) in test [2] is “borderline activity”. Further, in test [3], affinity was put at a Ki of 4.24 µM, the “Affinity (pKi)” value came to 5.37±0.12 and the “Change of potency upon repeated experimentation” value is reported as “continued decrease in potency observed upon repeated experimentation”.

`COc1cccc(OCCN2CCC(N3CCCCC3)CC2)c1` [ChEMBL 460313]: the “Affinity (pKi) of most similar ChEMBL ligand” value in test [1] was 6.9.

Turning to `CNCc1cc(C#CCCN2CCNC(=O)C2)ccc1Oc1ccc(SC)cc1` [ChEMBL 237514], the “Affinity (pKi) of most similar ChEMBL ligand” value in test [1] is 6.1.

In general, IC50 refers to the midpoint of a concentration-inhibition curve. With `Cc1ccc2c(c1)c1c3n2CCN(CC(O)CN2CCN(C)CC2)C3CCC1` (centres unmarked) [Compound 75], in test [2], the IC50 turned out to be 121 µM and the “pIC50 ± SEM” value stood at 3.92±0.18. Also, in test [3], the Ki was determined as 4.82 µM and the “Affinity (pKi)” value is on record as 5.32±0.04.

With `Cc1ccc2c(c1)c1c3n2CCN(CC(O)CNCc2ccccc2)C3CCC1` (centres unmarked) [Compound 42], in test [2], the “Result of first pharmacological assaying” value is given as “antagonist hits”, the IC50 worked out at 42.1 µM and the “pIC50 ± SEM” value is 4.38±0.11. Besides, in test [3], the Ki amounted to 14.8 µM, the “Affinity (pKi)” value was found to be 4.83±0.08 and the “Competition with [3H]N-α-methylhistamine binding (in words)” value (shortened to “Competition”) was “unable to outcompete radiolabeled ligand to NSB levels; also recorded: unable to lower the binding of [^3H]N-α-methylhistamine to non-specific binding levels”.

A word on the EC50: it is the concentration that produces a half-maximal response. With `NCCc1c[nH]cn1` [histamine], in test [4], the EC50 is 0.0218 µM.

As to `CCCCN1CN(CCCN2CCCCC2)Cn2c1nc1ccccc12` [Compound 35], in test [2], the “Result of first pharmacological assaying” value is “antagonist hits”, the half-inhibitory concentration (IC50) was found to be 3.3 µM and the “pIC50 ± SEM” value came out at 5.5 ± 0.27. In addition, in test [3], the affinity, expressed as Ki, was 1.75 µM and the “Affinity (pKi)” value worked out at 5.76 ± 0.05.

As for `Cc1nc(N2CCN(c3ncc[nH]c3=O)CC2)c2sccc2n1` [Compound 21], in test [2], the “Result of first pharmacological assaying” value was “antagonist hits”, the IC50 is 20.9 µM and the “pIC50 ± SEM” value is given as 4.68±0.10. In addition, in test [3], the inhibition constant (Ki) is above 50 µM and the “Competition” value was “little to no effect on radiolabeled ligand binding; also recorded: unable to compete with binding”.

Consider `c1ccc2c(c1)nc1n(CCN3CCCCC3)cnn21` [ChEMBL 1923529], for which the “Affinity (pKi) of most similar ChEMBL ligand” value in test [1] is 6.2.

Take `Cc1ccc(CN2CCCN(C(=O)CCSCc3cn4ccccc4n3)CC2)cc1` [Compound 44]: the “Result of first pharmacological assaying” value in test [2] is “seemingly active”. In test [3], the Ki was 2.82 µM, the “Affinity (pKi)” value was found to be 5.55±0.06 and the “Competition” value is “unable to outcompete radiolabeled ligand to NSB levels; also recorded: unable to lower the binding of [^3H]N-α-methylhistamine to non-specific binding levels”.

Take `CN1CCC(C(=O)c2cc3cc(Cl)ccc3[nH]2)CC1` [ChEMBL 186456]: the “Affinity (pKi) of most similar ChEMBL ligand” value in test [1] was 5.5.

As for `CCCCN1CN(CCCN(C)c2ccccc2)Cn2c1nc1ccccc12` [Compound 68], in test [2], the IC50 is 22 µM and the “pIC50 ± SEM” value turned out to be 4.66±0.20. In test [3], the Ki is above 300 µM and the “Competition” value was “little to no effect on radiolabeled ligand binding; also recorded: unable to compete with binding”.

`CCN(Cc1nc2ccccc2[nH]1)CC1CCCN(CCc2cccc(OC)c2)C1` (centres unmarked) [Compound 9]: the “Result of first pharmacological assaying” value in test [2] was “seemingly active”. In addition, in test [3], the affinity corresponds to a Ki of 1.75 µM, the “Affinity (pKi)” value amounted to 5.76±0.25 and the “Change of potency upon repeated experimentation” value was “continued decrease in potency observed upon repeated experimentation”.

On to `CCN1CCNC(=O)C1CC(=O)N1CCc2[nH]c3c(C)cccc3c2C1` (centres unmarked) [Compound 64], for which, in test [2], the IC50 stood at 261 µM and the “pIC50 ± SEM” value is reported as 3.58±0.17. Moreover, in test [3], the Ki stood at 86.7 µM and the “Affinity (pKi)” value is listed as 4.06±0.11.

As to `OC1(c2ccccn2)CCCN(c2nnc(N3CCC(N4CCCCC4)CC3)s2)C1` (centres unmarked) [ChEMBL 2048591], the “Affinity (pKi) of most similar ChEMBL ligand” value in test [1] is on record as 7.3.
